The values that follow come from US20130035255A1, “CONTROLLED RELEASE HYBRID SYSTEMS” (priority 2010, published 2013).

Where no end group is shown, it is not given here.

In one assay the target is GAL^BD-PRNHR-GAL^AD (Homo sapiens, UniProt P06401). The assay is classed as cell-based, yeast. Particulars: control strain, FIG. 4.
The target of assay [1] is GAL4^AD-HIV integrase (1-210 a.a.) and GAL4^BD-PR^LBD-INF5 (Homo sapiens, UniProt P06401). The assay can be described thus: steroid release two hybrid yeast LacZ assay (CUG fluorescence). The assay is classed as cell-based. As to conditions: strain expressing integrase fused to GAL4^AD and the interacting peptide.
Assay [2] has as its target HIV integrase (1-210 aa) and the peptide LYETILILLFLDVDT (SEQ ID NO:7) (Human immunodeficiency virus type 1 group M subtype B, UniProt P04585, G1270S/R1274K). It is filed as cell-based. Particulars: yeast screening strain.
Another assay has as its target HIV integrase (Human immunodeficiency virus type 1 group M subtype B, UniProt P04585). The assay can be described thus: biochemical. It is filed as binding.
Assay [3] addresses T1, GAL4^AD control (pVT 702, GAL4 activation domain alone).
T1 construct: also called pADH-GAL^AD base vector
T1 chain: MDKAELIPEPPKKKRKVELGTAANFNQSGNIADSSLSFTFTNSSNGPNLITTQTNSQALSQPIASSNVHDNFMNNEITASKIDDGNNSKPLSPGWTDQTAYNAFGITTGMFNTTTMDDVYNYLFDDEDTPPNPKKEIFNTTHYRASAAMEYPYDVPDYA
The assay can be described thus: steroid release yeast two-hybrid, LacZ reporter.

On to `CC(=O)[C@H]1CC[C@H]2[C@@H]3CCC4=CC(=O)CC[C@]4(C)[C@H]3CC[C@]12C` [progesterone], for which the signal-to-background at GAL^BD-PRNHR-GAL^AD was approximately 100; in assay [2] (8 μM progesterone), approximately 4. The “signal (RFU)” value in assay [1] is “increase in signal”. Besides, the expression of beta-galactosidase entry in assay [2] (FIG. 3 dose response) is listed as “stimulated expression of beta-galactosidase”.
For the molecule “LYETILILLFLDVDT [SEQ ID NO:7, LYETILILLFLDVDT]”, on HIV integrase, the dissociation constant Kd is approximately 5 µM.

B1: GAL4^BD-PR^LBD-INF5 hybrid protein (GAL4 DNA binding domain fused to the progesterone receptor ligand binding domain and the HIV integrase inhibitory peptide … (other)
chain: MKLLSSIEQACDICRLKKLKCSKEKPKCAKCLKNNWECRYSPKTKRSPLTRAHLTEVESRLERLEQLFLLIFPREDLDMILKMDSLQDIKALLTGLFVQDNVNKDAVTDRLASVETDMPLTLRQHRISATSSSEESSNKGQRQLTVSPVLQYPALTMIQLIPPLINLLMSIEPDVIYAGHDNTKPDTSSSLLTSLNQLGERQLLSVVKWSKSLPGFRNLHIDDQITLIQYSWMSLMVFGLGWRSYKHVSGQMLYFAPDLILNEQRMKESSFYSLCLTMWQIPQEFVKLQVSQEEFLCMKVLLLLNTIPLEGLRSQTQFEEMRSSYIRELIKAIGLRQKGVVSSSQRFYQLTKLLDNLHDLVKQLHLYCLNTFIQSRALSVEFPEMMSEVIAAQLPKILAGMVKPLLFHKALYETILILLFLDVDT
notes: also called GAL4^BD-PR^LBD-IN5
Regarding B1, in assay [3], the binding result is “no binding”.

What is called Kd is a measure of binding affinity in units of concentration. Lower therefore signals a tighter complex.
